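Protocol summary: plate cells (96-well), add compound at 5 concentrations, incubate 48 h, interpolate endpoints linearly. GI50: concentration for 50% inhibition of growth. TGI denotes the concentration required for complete inhibition of growth.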

This note sets out measurements from PubChem BioAssay (NCI).

What all share (experiment): NCI-60 cell line screen, 48 h
The test system of experiment [1] is SK-MEL-2 melanoma.
Experiment [2] concerns HCT-116 colon.
Experiment [3] deals with HCC-2998 colon.
Experiment [4] has as its system SNB-19 CNS.
In experiment [5] the test system is SF-539 CNS.
Experiment [6] concerns OVCAR-5 ovarian.
Experiment [7] relates to EKVX NSCLC.
In experiment [8] the test system is CAKI-1 renal.
Experiment [9] deals with NCI/ADR-RES ovarian.

Turning to `CCCCCCCCCCCc1nnc(N)o1`, the TGI in experiment [1] was more than 100 µM; in [2], more than 100 µM; in experiment [3], more than 100 µM; in experiment [4] it was 50.7 µM; in [5], more than 100 µM; in [6], more than 100 µM.

With `N.N.N.N.[Co+3].[N-]=[N+]=[N-].[N-]=[N+]=[N-].[N-]=[N+]=[N-]`, the GI50 is more than 100 µM in [1]; 85.5 µM in experiment [2]; more than 100 µM in [3]; more than 100 µM in [4]; 26.6 µM in experiment [5]; more than 100 µM in experiment [6]. In [7], the GI50 is more than 100 µM. The TGI in [1], in experiment [2], in experiment [3], in [4], in [5] and in experiment [6] was more than 100 µM each time. Further, in experiment [7], the TGI is more than 100 µM.

As to `CC(C)=CC1C[C@H](C2CC=C3C2(C)CCC2[C@@]3(C)C(=O)CC3[C@]2(C)C=CC(=O)[C@]3(C)CO)CO1` (stereo partly drawn), the TGI in experiment [1] was 14.8 µM; in [2] it was 10.2 µM; in experiment [3], 30 µM; in [4] it was 42.9 µM; in [5], 11.9 µM; in experiment [6] it was 37.8 µM. In addition, the TGI is 49 µM in [8] and 55.1 µM in [7].

As to `COC(=O)CC1C[C@H](C#N)N(C(=O)c2ccccc2)C[C@@H]1CC[N+](=O)[O-]` (stereo partly drawn), the TGI in experiment [1] is 0.834 µM; in experiment [2] it was more than 100 µM; in [3] it was more than 100 µM; in experiment [4] it was more than 100 µM; in [5], more than 100 µM; in [6], more than 100 µM. For the same molecule, the TGI in experiment [7] is more than 100 µM.

With `CCOc1cccc(/C=N/N=C2\C(=O)Nc3c(Cl)cc(Cl)cc32)c1O`, the TGI in experiment [1], in experiment [2], in experiment [3], in [4], in experiment [5] and in experiment [6] was more than 100 µM in each case. In addition, the TGI in experiment [8], in [7] and in [9] was more than 100 µM each time.

As for `COc1ccc(/C=N/N=C(\N)NO)cc1O`, the TGI is more than 100 µM in experiment [1]; more than 100 µM in [2]; more than 100 µM in [3]; more than 100 µM in experiment [4]; 94.4 µM in experiment [5]; more than 100 µM in experiment [6]. Moreover, the TGI in [8] and in [7] was more than 100 µM in each case.

On to `O=C(O)CCN(CCCCN(CCC(=O)O)CCC(=O)O)CCC(=O)O`, for which the TGI in experiment [1], in [2], in experiment [3], in [5], in [6] and in experiment [8] was more than 100 µM each time. For the same molecule, the TGI in experiment [7] is more than 100 µM.

For `N.N.N.N.N.NC(=O)c1nn[n-]n1.[Cl-].[Co+3]`, the GI50 in experiment [1], in experiment [2], in [3], in [4], in [5] and in experiment [6] was more than 100 µM throughout. The GI50 in experiment [8] and in [7] was more than 100 µM in each case. Also, the TGI in experiment [1], in experiment [2], in experiment [3], in [4], in experiment [5] and in [6] was more than 100 µM throughout. In addition, the TGI in [8] and in [7] was more than 100 µM throughout.

As to `COC(=O)NC(=O)c1cn(C2OC(CO)C(O)C2O)c(=O)[nH]c1=O` (stereo not drawn), the TGI in experiment [1], in [2], in [3], in experiment [4], in experiment [5] and in [6] was more than 100 µM throughout. This molecule registered a TGI in [8] of more than 100 µM.

Regarding `Cc1cc(CC(=O)NCCO)n(CCO)c(=O)c1`, the TGI in experiment [2], in experiment [3], in experiment [4], in [5], in [6] and in [8] was more than 100 µM throughout.

Turning to `O=C(Nc1ccc([As](=O)(O)O)cc1)Nc1cccc(Cl)c1Cl`, the TGI in experiment [1], in experiment [2], in experiment [3], in [4], in experiment [5] and in [6] was more than 100 µM in each case. Besides, the TGI in experiment [8], in [7] and in experiment [9] was more than 100 µM in each case.

On to `NC(=O)C(=O)N/N=C1\C(=O)N(c2ccc(Cl)cc2Cl)C(=O)C1C(=O)Nc1ccc(Cl)cc1Cl` (stereo not drawn), for which the TGI in experiment [1], in experiment [2], in experiment [3], in [4], in [5] and in experiment [6] was more than 100 µM in each case. For the same molecule, the TGI in [8] and in experiment [7] was more than 100 µM in each case.

With `O=C(O)CN(CC(=O)O)Cc1cc(C#Cc2ccc(C#Cc3ccccc3)cc2)cc(CN(CC(=O)O)CC(=O)O)n1`, the TGI in [1] was more than 73.7 µM; in [2], 39.9 µM; in experiment [3], more than 72.4 µM; in experiment [4], more than 77 µM; in [5], 59.3 µM; in experiment [6], more than 81.6 µM. Further, the results for the TGI in experiment [8], in [7] and in experiment [9] were 61.9 µM, more than 86.8 µM and 35.6 µM, respectively.

Turning to `NS(=O)(=O)c1ccc(-n2nc(-c3ccc(Cl)cc3)cc2-c2cc(O)ccc2O)cc1`, the GI50 in experiment [1] was 33.5 µM; in experiment [3], 17.2 µM; in [5], 25.4 µM; in experiment [6] it was 15.7 µM; in experiment [8], 7.9 µM; in experiment [7] it was 22.6 µM. For the same molecule, the GI50 in experiment [9] is 20.9 µM. Also, the TGI in experiment [1] was more than 100 µM; in experiment [3], 31.2 µM; in experiment [5] it was 46.7 µM; in [6], 31.1 µM; in experiment [8], 22.8 µM; in [7], 45.6 µM. The TGI in [9] was 47.6 µM.
